Consider three substances from US7572459B2, “Anionic or cationic dendrimer antimicrobial or antiparasitic compositions” (Starpharma Pty Ltd., priority 1998, dated 2009).

The format of the data set is cell-based. The source says:
• II The following assay results were obtained in an in vitro assay to test for inhibition of Trypanosoma (T) and Plasmodium (P) species.
“BHAlys31lys32(NHCSNHPhOP[O] [ONa]2)64 [BRI6181]”: the “Cytotoxicity MIC” value is over 100 µg/mL.

For the substance “PAMAM 4.0 EDA(NHCSNH SaccharinNa)32 [BRI6157]”, the “Cytotoxicity MIC” value was over 100 µg/mL. With “PAMAM 4.0 EDA(NHCSNH-3,5 Ph [COOH]2)32 [BRI6195]” the figure was over 100 µg/mL.
